Columns and labels:
[1] = test system: r(CUG)9; assay: Surface plasmon resonance (SPR) binding to immobilized r(CUG)9 RNA
Procedure: A streptavidin-coated sensor chip (SA chip, GE Healthcare) was washed with HBS-EP^+ buffer (10 mM HEPES, pH 7.4, 0.15 M NaCl, 3 mM EDTA and 0.05% v/v Surfactant P20) for 6 minutes, and then activated with three consecutive 1-min injection of 30 μL of activation buffer (50 mM NaOH and 1 M NaCl).
5′-Biotinylated r(CUG)9 (Thermo Fisher Scientific Inc.) was diluted to 0.1 μM with HEPES buffer (10 mM HEPES and 500 mM NaCl) and flowed onto the sensor chip until immobilized response units (RU) reaching around 400 RU. The amount of r(CUG)9 immobilized on the surface of the sensor chip was at 401 RU.
Surface plasmon resonance was measured using BIAcore T200 SPR system (GE Healthcare).
r(CUG)9 used for the SPR assay has the sequence as shown below.
For single-cycle kinetic (SCK) analysis, the surface of the sensor chip was conditioned by 120 sec exposure of continuous flow of HBS-EP^+ buffer at a flow rate of 30 μL/min at 25° C. Compound JM608 was dissolved in HBS-EP^+ buffer at a concentration of 0.063 μM, 0.125 μM, 0.25 μM, 0.50 μM and 1.0 μM, and the resulting solutions were sequentially injected on the sensor surface for 60 seconds each at a flow rate of 30 μL/min per cycle.
The obtained SPR response curves were analyzed using BIAcore T200 evaluation software (version 2.0).
SPR measurement was performed in the same manner as in Example 1 except that compound JM642 was used in place of compound JM608 and that solutions of compound JM642 at concentrations of 6 nM, 13 nM, 25 nM, 50 nM and 100 nM were sequentially injected.
The resonance unit for the compound at a concentration of 25 nM in Example 1 was calculated from the measured value (1.9 RU) for the compound at 63 nM using the formula: 1.9 RU×(25 nM/63 nM).

[2] = test system: Atp2a1 (sarcoplasmic reticulum Ca2+/ATPase gene) Exon 22 splicing; assay: Improvement of Atp2a1 splicing abnormality in DM1 mouse model; assay type: in vivo, homozygous HSA^LR transgenic mice; conditions: 20 mg/kg/day, daily intraperitoneal administration for five days; rectus femoris (quadriceps)
Procedure: (§1) Gender- and age-matched homozygous HSA^LR transgenic mice of line 20b (FVB inbred background) (Science 2000, 289, 1769-1772) (<3 months old) were treated with JM642 at indicated doses (10 mg/kg/day and 20 mg/kg/day) for five days by daily intraperitoneal administration. After treatments, the rectus femoris (quadriceps) were obtained for splicing analysis. Total RNA extraction from the tissue, cDNA synthesis and polymerase chain reaction (PCR) were carried out according to Ann. Clin. Transl. Neurol. 2016, 3, 42-54. The PCR products were separated by agarose gel electrophoresis, and the gel was stained with GelRed (Biotium). The gel was imaged using a Typhoon laser fluorimager (GE Healthcare) and the gel bands were quantified using ImageQuant (GE Healthcare).
(§2) For normal mice and mice treated in the same manner as above except that JM642 was not administered, total RNA extraction, cDNA synthesis, PCR and electrophoresis of the PCR products were performed in the same manner as above.
Evaluation was performed in the same manner as in Example 3 except that the compound (DDAP) shown below synthesized in accordance with the method described in non-patent literature 3 was used in place of compound JM642.

[3] = test system: Clcn1 (muscle-specific chloride channel gene) Exon 7a splicing; assay: Improvement of Clcn1 splicing abnormality in DM1 mouse model; assay type: in vivo, homozygous HSA^LR transgenic mice; conditions: 20 mg/kg/day, daily intraperitoneal administration for five days; rectus femoris (quadriceps)
Procedure: as §1, §2
Evaluation was performed in the same manner as in Example 3 except that Clcn1 was studied in place of Atp2a1.
Evaluation was performed in the same manner as in Example 4 except that the compound (DDAP) shown above synthesized in accordance with the method described in non-patent literature 3 was used in place of compound JM642.

In the case of `NCCCNc1nc(NC(=O)OCCCN)cc2c(-c3ccnc(N4CCNCC4)c3)cccc12` [JM608, 3-aminopropyl (1-((3-aminopropyl)amino)-5-(2-(piperazin-1-yl)pyridin-4-yl)isoquinolin-3-yl)carbamate], the “Resonance unit (RU) at concentration of 25 nM” value ([1]; 25 nM compound, r(CUG)9 immobilized at 401 RU, calculated from measured value at 63 nM: 1.9 RU×(25 nM/63 nM)) is reported as 0.8 RU, the “Resonance unit, measured value at 63 nM” value ([1]; 63 nM compound, r(CUG)9 immobilized at 401 RU) is reported as 1.9 RU and the “binding capacity to the CUG repeat sequence” value ([1]; SPR, FIGS. 1 and 2 and Table 2) is reported as “observed”.

In the case of `NCCCNc1nc(NC(=O)OCCCNC(=O)CCNCCC(=O)NCCCOC(=O)Nc2cc3c(-c4ccnc(N5CCNCC5)c4)cccc3c(NCCCN)n2)cc2c(-c3ccnc(N4CCNCC4)c3)cccc12` [JM642, ((3,3′-azanediylbis(propanoyl))bis(azanediyl))bis(propane-3,1-diyl)bis((1-((3-aminopropyl)amino)-5-(2-(piperazin-1-yl)pyridin-4-yl)isoquinolin-3-yl)carbamate)], the “inclusion rate of Exon 22” value [2] is reported as 70% and the “skipping rate of Exon 7a” value [3] is reported as 70%.
